Experimental data as given in patent US20100179646A1 (Rainbow Medical Ltd., priority 2009, published 2010).
Values after ≈ are worked out from the molar mass of the structure shown. “Also recorded” adds a separate entry of the source.

Key:
[1] = test system: Enterococcus faecalis strain G; test: Determination of the MIC, 24 hour turbidity assay (optical density at 650 nm); type: cell-based
Protocol: Materials and Methods. • A Versamax™ temperature-controlled spectrophotometeric plate reader was used to continuously monitor growth of bacteria. This device accepts standard microtiter plates and maintains a constant temperature as desired. It therefore serves both as an incubator and as a plate reader that quantitatively monitors bacterial growth by following the development of turbidity in the wells. The device is supported by software which allows generation of individual growth curves for each well. • Enterococcus faecalis strain G was used. This bacterium was selected to establish a baseline to which other bacteria may be compared in the future. It is a stable strain and is streptomycin-resistant, which allows the use of this antibiotic agent in the growth media to reduce the incidence of accidental contamination with other bacterial strains. • Growth medium and conditions. The tests were conducted using Brain-Heart Infusion broth (BHI) as growth medium. This medium contained 1 mg/100 ml glucose which is approximately equivalent to serum concentration of glucose. A temperature of 37 C was maintained throughout the test. • Antibacterial agents. […] The Triclosan was initially dissolved in […] at a concentration of 10 mg/ml. […] Two types of non-woven fabric were used. The material was cut to standard size of 6 mm2. […] The growth medium contained 1 mg/100 mL glucose, which is approximately equivalent to the concentration that may be present in human blood. […] Bacteria were added at 10^6 CFU/well and the turbidity in the well was continuously monitored for up to 24 h to monitor the growth of the bacteria. Each group consisted of 8 wells with respective concentrations. Wells containing bacteria with no antibacterial agent served as a positive control. […] Bacteria were added to the same wells at time 0 and then at 24 and 48 h. Bacterial growth was monitored for 24 h after each addition. • (c) Determination of the MIC of Triclosan: The antibacterial effect of Triclosan was tested in 24 hour assays in order to define its MIC. Each well contained 200 μL of sterile growth medium. A range of Triclosan concentrations was added to respective wells. Bacteria were added at 10^6 CFU/well, and the turbidity in the well was continuously monitored for 24 h to monitor bacterial growth. Each group consisted of 8 wells with respective concentrations. Wells containing bacteria with no antibacterial agent served as a positive control. […] Each sample was attached to a special insert that allowed the material to be inserted into the wells of a microtiter plate without interfering with turbidity measurements in that well.

[2] = test system: Enterococcus faecalis strain G; conditions: GOx 6 μg/well (30 μg/mL) or higher, 72 hours, bacteria added at 0, 24 and 48 h
Protocol: Materials and Methods. • A Versamax™ temperature-controlled spectrophotometeric plate reader was used to continuously monitor growth of bacteria. This device accepts standard microtiter plates and maintains a constant temperature as desired. It therefore serves both as an incubator and as a plate reader that quantitatively monitors bacterial growth by following the development of turbidity in the wells. The device is supported by software which allows generation of individual growth curves for each well. • Enterococcus faecalis strain G was used. This bacterium was selected to establish a baseline to which other bacteria may be compared in the future. It is a stable strain and is streptomycin-resistant, which allows the use of this antibiotic agent in the growth media to reduce the incidence of accidental contamination with other bacterial strains. • Growth medium and conditions. The tests were conducted using Brain-Heart Infusion broth (BHI) as growth medium. This medium contained 1 mg/100 ml glucose which is approximately equivalent to serum concentration of glucose. […] Bacteria were added at 10^6 CFU/well and the turbidity in the well was continuously monitored for up to 24 h to monitor the growth of the bacteria. […] Bacteria were added at 10^6 CFU/well, and the turbidity in the well was continuously monitored for 24 h to monitor bacterial growth. […]

[3] = GOx activity assay (o-Dianisidine/peroxidase, optical density at 490 nm); type: biochemical; conditions: 0.03 mg/ml GOx
Protocol: An assay was set up that included: • 48 mM sodium acetate buffer, pH 5.1 • 0.16 mM o-Dianisidine • 1.61% (w/v) glucose • 2 units/ml peroxidase
The above components undergo the following reactions in combination with GOx:
β-D-glucose+O2+H2O→D-Gluconolactone+H2O2 Reaction 1
H2O2+o-Dianisidine(reduced)→o-Dianisidine(oxidized) Reaction 2
The optical density of the assay at 490 nm indicates the concentration of oxidized o-Dianisidine in the assay, oxidized o-Dianisidine being the final product of Reactions 1 and 2. […] The assay was set up in a 96-well plate, in accordance with enzyme-linked immunosorbent assay (ELISA) techniques, as are known in the art. An ELISA reader, as is known in the art, was used to determine the optical density of the assay.
An assay was set up, in accordance with the techniques described with reference to Experiment 1.
The above components, in combination with glucose, undergo Reactions 1 and 2 described with reference to Experiment 1 hereinabove.
Different concentrations of glucose were added to the assay, and the optical density of the assay after five minutes was measured with 490 nm light.
The above assay was set up with sodium acetate buffer of a pH that varied from 4 to 7.7.

| Compound | inhibition of bacterial growth ([1]; 4 μg/well (20 μg/mL), 24 h) | minimal inhibitory concentration (MIC) ([1]; 24 hour assay, BHI broth with 1 mg/100 ml glucose, 37 C, 106 CFU/well) [µg/mL] | inhibition of bacterial growth ([1]; GOx 6 μg/well (30 μg/mL) or higher, 24 h) | inhibition of bacterial growth, sustained effect [2] | influence of pH on GOx activity ([3]; 1.61% (w/v) glucose, sodium acetate buffer pH 4 to 7.7) | GOx activity at glucose levels of 80-120 mg/dL ([3]; pH 5.1, after five minutes, FIG. 6A) | MIC ([1]; Enterococcus faecalis, 24 h, read-out: minimal inhibitory concentration (MIC)) [µg/mL] | inhibition of bacterial growth ([1]; Triclosan 5 μg/well (25 μg/mL) and above, 24 h) |
| --- | --- | --- | --- | --- | --- | --- | --- | --- |
| glucose oxidase [GOx] | failed to inhibit | 30 | substantially inhibitory; also recorded: zero bacterial growth | substantially complete inhibition | not substantially influenced | active; also recorded: approximately constant activity | – | – |
| Oc1cc(Cl)ccc1Oc1ccc(Cl)cc1Cl [Triclosan, reference compound] | failed to inhibit | – | – | – | – | – | 25 (≈ 86.3 µM) | substantially inhibitory |
